# In PMC3665789 (PLoS ONE, 2013):
# Where two headings read alike, the source gives them in different places.
# What was measured:
# [1] = tested on: HSV-1 wild-type C559142 (clinical isolate); details: HEL cells; HSV-1 C559142; CPE
# [2] = tested on: HIV-1 NL4.3^RALres. (X4); details: read-out: EC50 (µM ± SEM); MT-4 cells; NL4.3 resistant to raltegravir (RAL); MTS/PES
# [3] = tested on: HIV-1 NPO3 (clinical isolate; X4); details: PBMCs; NPO3, group M subtype E; p24 Ag ELISA
# [4] = tested on: HSV-1 wild-type; details: read-out: Median EC50; median over HSV-1 wild-type strains; HEL cells
# [5] = tested on: HIV-1 CI#17 (clinical isolate; X4); details: PBMCs; CI#17, group M subtype B; p24 Ag ELISA
# [6] = tested on: HIV-1 NL4.3^2G12res. (X4); details: read-out: EC50 (µM ± SEM); MT-4 cells; NL4.3 resistant to mAb 2G12; MTS/PES
# [7] = tested on: HIV-1 NL4.3 (X4); details: read-out: EC50 (µM ± SEM), MT-4 cells, MTS/PES method
# [8] = Cytotoxicity assay (MTS/PES); type: cell-based
# Procedure: Cytotoxicity in PBMCs (3 days), MT-4 (5 days), HUT-78 (1 day), C8166-(5 days), HEL (3 days) and Daudi cells (3 days) was measured using the MTS/PES method. The duration of the assays is given between brackets.
# [9] = tested on: HIV-1 IIIB^FGMres. (X4); details: read-out: EC50 (µM ± SEM); MT-4 cells; IIIB resistant to feglymycin (FGM); MTS/PES
# [10] = tested on: HSV-2 wild-type RV-24 (clinical isolate); details: HEL cells; HSV-2 RV-24; CPE
# [11] = tested on: HIV-1 IIIB; test: Time-of-drug-addition study, HIV; type: cell-based; details: MT-4 cells, 48 µM LabyA1
# Procedure: The time-of-drug-addition (TOA) experiments were performed as described. In brief, 1×10^6 MT-4 cells/ml were infected with HIV-1 X4 IIIB at a multiplicity of infection (MOI) of 0.5. The compounds were added at different time points in a range from 0 to 26 h post-infection. After 31 h, HIV-1 replication was detected by p24 HIV-1 Ag ELISA as described above. The reference compounds were added at 100 times their EC50-values, as obtained in the MT-4 cell antiviral assay.
# [12] = tested on: HSV-1 TK^- RV-117 (clinical isolate); details: HEL cells, CPE
# [13] = tested on: HSV-1 TK^- RV-179 (clinical isolate); details: HEL cells, CPE
# [14] = tested on: PBMCs; test: Bio-Plex cytokine/chemokine detection assay; type: cell-based; details: 24 h; 9.6 µM LabyA1 versus 0.078 µM PHA; 27-plex
# Procedure: Freshly isolated PBMCs from 4 individual donors were incubated for 24 h with 9.6 µM LabyA1 or 0.078 µM PHA. The cytokine/chemokine concentration in the cell culture supernatant was determined by the Bio-Plex 200 System (Bio-Rad, Hercules, CA) using the Bio-Plex Human Cytokine 27-Plex assay as described earlier.
# [15] = tested on: HIV-1 UG273 (clinical isolate; R5); details: PBMCs; UG273, group M subtype A; p24 Ag ELISA
# [16] = tested on: HSV-2 TK^- BA19026589 (clinical isolate); details: HEL cells, CPE
# [17] = tested on: HIV-1 BaL (R5); details: read-out: EC50 (µM ± SEM), MDM, p24 Ag ELISA
# Procedure: Afterwards, the non-adherent cells were gently mixed and removed from the adherent cell layer. The cells were carefully washed and this washing step was repeated after 6 days of incubation at 37°C. The adherent cells were then infected with HIV-1 R5 BaL.
# MDM were seeded in a 48-well plate in 1 ml medium. […] Each concentration was tested in triplicate. After an incubation of 30 minutes at 37°C, 1000 pg/well of p24 Ag of HIV-1 R5 BaL was added. Three weeks post-infection, supernatant was collected and viral replication evaluated by p24 HIV-1 Ag ELISA.
# [18] = tested on: HIV-1 US2 (clinical isolate; R5/X4); details: PBMCs; US2, group M subtype B; p24 Ag ELISA
# [19] = tested on: HIV-1 HE (R5/X4); details: read-out: EC50 (µM ± SEM), PBMCs, p24 Ag ELISA
# [20] = tested on: DC-SIGN-mediated transmission of HIV-1 HE; details: for p24 Ag concentration: without compound 263.9 ng/ml
# Procedure: Raji.DC-SIGN^+ cells (200 µl; 2.5×10^6 cells/ml) were exposed to high amounts of HIV-1 HE (100 µl; p24, ∼3×10^6 pg/ml) for 1 h at 37°C. Unbound virus from the Raji.DC-SIGN^+ cells was removed by washing twice with cell culture medium. In the meantime, 100 µl of various concentrations of LabyA1 were added in a 96-well plate and incubated for 1 h with the C8166 target T cells (50 µl; 2×10^6 cells/ml). The same amount of virus exposed Raji.DC-SIGN^+ cells (Raji.DC-SIGN/HE) were mixed with the antiviral drug exposed C8166 target T cells.
# [21] = tested on: HIV-2 ROD (R5/X4); details: read-out: EC50 (µM ± SEM), PBMCs, p27 HIV-2 Ag ELISA
smiles,measurement,setting,value
"C/C=C1\NC(=O)[C@H](Cc2ccccc2)NC(=O)[C@@H]2CCCN2C(=O)[C@H](C(C)C)NC(=O)[C@H](Cc2c[nH]c3ccccc23)NC(=O)[C@]23CSC[C@H](NC1=O)C(=O)N[C@H](C(=O)O)CSSC[C@H](NC(=O)[C@@H]1CSC[C@]4(C[C@H](N)C(=O)N[C@@H](CC(N)=O)C(=O)N[C@@H](C)C(=O)N4)C(=O)N[C@@H](C(C)C)C(=O)N[C@@H](Cc4c[nH]c5ccccc45)C(=O)N[C@@H](CCC(=O)O)C(=O)N1)C(=O)N[C@@H](C2)C(=O)N[C@@H]([C@@H](C)O)C(=O)NCC(=O)N3 [LabyA1, labyrinthopeptin A1]",EC50,[1],450 ± 20 nM
same,EC50,[2],0.88 ± 0.08 µM
same,EC50,[3],1600 ± 300 nM
same,EC50,[4],1600 nM
same,EC50,[5],1000 ± 200 nM
same,EC50,[6],2.2 ± 0.3 µM
same,EC50,[7],1.7 ± 0.4 µM
same,CC50,"[8]; C8166 cells, 5 days",23000 nM
same,CC50,"[8]; Daudi cells, 3 days",> 48000 nM
same,CC50,"[8]; HUT-78 cells, 1 day",> 31000 nM
same,CC50,"[8]; MT-4 cells, 5 days",33000 nM
same,CC50,"[8]; PBMCs, 3 days",45000 nM
same,EC50,[9],1.9 ± 0.1 µM
same,EC50,[10],410 ± 280 nM
same,time-of-drug-addition profile,[11],prevented HIV infection at an early time point somewhat comparable with AMD3100
same,EC50,[12],1900 ± 600 nM
same,EC50,[13],1900 ± 300 nM
same,cytokine/chemokine response of treated PBMCs,[14],"much weaker, if any"
same,EC50,[15],1900 ± 100 nM
same,EC50,[16],290 ± 100 nM
same,EC50,[17],2.4 ± 0.8 µM
same,EC50,[18],700 ± 190 nM
same,EC50,[19],1.8 ± 0.3 µM
same,giant cell formation,[20]; 9.6 µM,fully protected the cells from giant cell formation
same,p24 Ag concentration,[20]; 9.6 µM,< 25 pg/mL
same,inhibitory effect,[20]; 1.9 and 0.19 µM,not detectable
same,p24 Ag concentration,[20]; 1.9 and 0.19 µM,393700 pg/mL
same,EC50,"[20]; read-out: EC50, DC-SIGN-mediated transmission and subsequent replication of HIV-1, Raji.DC-SIGN/HE cocultured with C8166 T cells, 24 h",4100 nM
same,EC50,[21],1 ± 0.3 µM
